Patent US20240002379A1, “ASYMMETRIC CONJUGATE COMPOUNDS” (Pheon Therapeutics Ltd., priority 2016, published 2024)
“Also recorded” adds a separate entry of the source. Like-named read-outs stand apart in the source and are kept apart here.

Key:
PC3 (prostate) cell line = experiment: MTT cytotoxicity assay, PC3; format: cell-based; conditions: read-out: Cytotoxicity PC3 (nM, 72 hour)
Procedure: (§1) Tumor cell lines were maintained in RPMI1640 medium supplemented with 10% heat-inactivated fetal bovine serum, 2 mM L-glutamine and 1 mM sodium pyruvate. 1800 cells per well were seeded in a volume of 180 μl in a 96-well flat bottom polystyrene plate. The cells were allowed to adhere overnight at 37° C. in a CO2 incubator. Ligands were initially formulated in DMSO, and stocks stored at −80° C. They were then further formulated at lox concentration in RPMI1640 medium. 20 ul of diluted samples were added into each treatment well. On each plate, blank wells with no cells, and untreated wells containing cells, were included. Plates were then cultured at 37° C. in a CO2 incubator for 72 hrs. Cytotoxicity was evaluated using a tetrazolium salt-based assay, the MTT assay. After 72 hours, the supernatant was removed from each well and 200 μl of a sterile filtered 500 μg/ml MTT solution in water added to each well. The plates were then incubated at 37° C. in a CO2 incubator for 4 hrs. The supernatant was then removed and the formazan crystals formed solubilized by adding 150 μl of DMSO to each well. The plate was then read on a plate reader at 540 nm, and percentage cell survival calculated as follows: ((mean absorbance treated wells at concentration x−mean absorbance blank wells)[…](mean absorbance untreated wells at concentration x−mean absorbance blank wells))×100. Data were plotted as concentration in nM vs. % cell survival in Microsoft Excel, and IC50 values (concentration where cell survival is reduced by a half) were determined from the graph.

[1] = test system: FaDu (head and neck cancer) cell line; experiment: MTT cytotoxicity assay, FaDu; format: cell-based; conditions: Homo sapiens, read-out: Cytotoxicity FaDu (nM, 72 hour)
Procedure: as §1

[2] = test system: LIM1215 cell line (gastric); experiment: MTT cytotoxicity assay, LIM1215; format: cell-based; conditions: MTT assay, 72 hour incubation, read-out: Cytotoxicity LIM1215 (72 hours)
Procedure: as §1

[3] = test system: three fluorescently labelled DNA sequences shown in FIG. 17; experiment: FRET DNA melting, the three DNA sequences shown in FIG. 17 together; format: binding; conditions: for effect on melting temperature / DNA stabilisation: different concentrations, all three sequences, vs control DNA
Source text: Further FRET DNA melting studies were undertaken on a number of molecules using three fluorescently labelled sequences. The sequences (FIG. 17) were designed to provide additional evidence that the series can form inter- and intrastrand cross-links. Inosines were inserted in place of traditional DNA bases in some cases to limit the number of binding sites available for the compounds to interact with. The short duplexes used in this FRET study are relatively unstable in the duplex form with a melting temperature below 30° C. so that, in the absence of ligand, a large part of the melting occurs below the starting temperature of the experiment. […] Increasing concentrations of 13 cause a greater amount of the melting transition to appear at the higher temperature (i.e. a greater number of the DNA molecules are cross-linked). A greater effect for 5′-AIIAGAITTTI′-3′ can be observed at lower concentrations of 13.
Oligonucleotides were obtained from ATDbio (Southampton, UK) in lyophilised form. They were labelled with a fluorophore molecule (F=fluorescein) at the 5′-end and a quencher molecule (Q=dabcyl) at the 3′-end of the complementary strand. Each oligonucleotide was dissolved in distilled H2O to form stock solutions of 100 PM. Working solutions of 5 μM were prepared by diluting the stock solution with distilled H2O.
The following buffers were used: 250 mM phosphate buffer pH 7.4 (consisting of sodium dihydrogen phosphate and sodium phosphate diluted in distilled H2O) and 5 M sodium chloride buffer. A11 buffers and distilled H2O were filtered through a […] filter prior to use.
For the FRET experiments a stock solutions were prepared by dissolving compound (such as compound 13) in DMSO to give a concentration of 10 mM. From this stock solution, working solutions of the desired concentration were prepared by diluting the stock solution with distilled H2O.
The reaction mixture was comprised of 4 μL of 250 mM phosphate buffer (final concentration of 50 mM), 4 μL flourophor and 4 μL quencher molecule of the appropriate oligonucleotide for a final concentration of 0.2 PM, 4 μL 5 M sodium chloride (final concentration of 1 M NaCl), and 4 μL of distilled H2O. This mixture was heated in an Eppendorf tube at 90° C. for 1 min and slowly cooled down to room temperature. This process was carried out to anneal the single strands to double-stranded DNA. Following this, 4 μL of the ligand was added in the desired concentration and the mixture incubated overnight either at room temperature or 4° C. A control sample of DNA only was prepared by mixing 4 μL 250 mM phosphate buffer (final concentration of 50 mM) with 4 μL fluorophore-labelled and 4 μL quencher-labelled oligonucleotides (of the appropriate sequence) to give a final concentration of 0.2 PM, 4 μL 5 M sodium chloride (final concentration of 1 M NaCl) and 4 μL distilled H2O. This mixture was analysed without prior annealing.
Fluorescence melting profiles were measured using a Roche LightCycler using a total reaction volume of 20 μL. Initially, the samples were denatured by heating to 95° C. at a rate of 1° C. min^−1. The samples were then maintained at 95° C. for 5 min before annealing by cooling to 25° C. at 1° C. min^−1. The samples were then held at 25° C. for a further 5 min and finally melted by heating to 95° C. at 1° C. min^−1. Annealing steps and melting steps were all recorded and changes in fluorescence were measured at 520 nm.
Tm values were obtained from the first derivates of the melting profiles using the Roche LightCycler software.

SW48 cell line (gastric) = experiment: MTT cytotoxicity assay, SW48; format: cell-based; conditions: MTT assay, 72 hour incubation
Procedure: as §1

[4] = test system: SW620 cell line (gastric); experiment: MTT cytotoxicity assay, SW620; format: cell-based; conditions: MTT assay, 72 hour incubation, read-out: Cytotoxicity SW620 (72 hours)
Procedure: as §1

[5] = Homo sapiens, SW48, read-out: Cytotoxicity SW48 (72 hrs)

| Compound | effect on melting temperature / DNA stabilisation [3] | IC50 ([2]; LIM1215) | IC50 (SW48 cell line (gastric); [5]) | IC50 ([4]; Homo sapiens, SW-620) | further results |
| --- | --- | --- | --- | --- | --- |
| COc1cc2c(cc1OCCCC(=O)N1C[C@@H](CCl)c3c1cc(OC(=O)N1CCN(C)CC1)c1ccccc31)N=C[C@@H]1Cc3ccccc3CN1C2=O [Compound 61, (S)-1-(Chloromethyl)-3-(4-(((S)-2-methoxy-14-oxo-6a,7,12,14-tetrahydrobenzo[5,6][1,4]diazepino[1,2-b]isoquinolin-3-yl)oxy)butanoyl)-2,3-dihydro-1H-benzo[e]indol-5-yl 4-methylpiperazine-1-carboxylate] | – | – | – | – | IC50 (PC3 (prostate) cell line; 72 h): > 10 nM; IC50 ([1]; 72 h): > 10 nM |
| CC(C)(C)OC(=O)N1CC2CC23C1=CC(=O)c1ccccc13 [Compound 83, tert-Butyl (8bR,9aS)-4-oxo-9,9a-dihydro-1H-benzo[e]cyclopropa[c]indole-2(4H)-carboxylate] | do not increase | – | – | – | IC50 [2]: 2890 nM; degree of DNA stabilisation ([3]; middle sequence and bottom sequence in FIG. 17 (both AT-rich)): very small degree of stabilisation; IC50 (SW48 cell line (gastric); read-out: Cytotoxicity SW48 (72 hrs)): 4390 nM; IC50 [4]: 3510 nM |
| COc1cc2c(cc1OCCCC(=O)N1C[C@@H](CCl)c3c1cc(O)c1ccccc31)N=C[C@@H]1Cc3ccccc3CN1C2=O [Compound 53, (S)-3-(4-((S)-1-(Chloromethyl)-5-hydroxy-1,2-dihydro-3H-benzo[e]indol-3-yl)-4-oxobutoxy)-2-methoxy-7,12-dihydrobenzo[5,6][1,4]-diazepino[1,2-b]isoquinolin-14(6aH)-one] | – | – | – | – | IC50 (PC3 (prostate) cell line; MTT assay, 72 hour incubation): 0.02 nM; IC50 ([1]; MTT assay, 72 hour incubation): 0.65 nM |
| COc1cc2c(cc1OCc1c(C(=O)N3C[C@@H](CCl)c4c3cc(O)c3ccccc43)sc3ccccc13)N=C[C@@H]1CCCCN1C2=O [Compound 91, (S)-3-((2-((S)-1-(Chloromethyl)-5-hydroxy-2,3-dihydro-1H-benzo[e]indole-3-carbonyl)benzo[b]thiophen-3-yl)methoxy)-2-methoxy-7,8,9,10-tetrahydrobenzo[e]pyrido[1,2-a][1,4]diazepin-12(6aH)-one] | – | 2210 nM | 2320 nM | 2610 nM | – |
| COc1cc2c(cc1OCc1cccc(CC(=O)N3C[C@@H](CCl)c4c3cc(O)c3ccccc43)c1)NC(=O)[C@@H]1CCCCN1C2=O [Compound 139, (S)-3-((3-(2-((S)-1-(Chloromethyl)-5-hydroxy-1,2-dihydro-3H-benzo[e]indol-3-yl)-2-oxoethyl)benzyl)oxy)-2-methoxy-7,8,9,10-tetrahydrobenzo[e]pyrido[1,2-a][1,4]diazepine-6,12(5H,6aH)-dione] | – | 12 nM | 0.95 nM | 13.5 nM | – |
| COc1cc2c(cc1OCc1cccc(CC(=O)N3C[C@@H](CCl)c4c3cc(O)c3ccccc43)c1)N=C[C@@H]1Cc3ccccc3CN1C2=O [Compound 108, (S)-3-((3-(2-((S)-1-(Chloromethyl)-5-hydroxy-1,2-dihydro-3H-benzo[e]indol-3-yl)-2-oxoethyl)benzyl)oxy)-2-methoxy-7,12-dihydrobenzo[5,6][1,4]diazepino[1,2-b]isoquinolin-14(6aH)-one] | – | 0.78 nM | – | 0.045 nM | IC50 (SW48 cell line (gastric); Homo sapiens, SW48, read-out: IC50 value in SW48): 0.004 nM |
| COc1cc2c(cc1OCCCCCC(=O)N1C[C@@H](CCl)c3c1cc(O)c1ccccc31)N=C[C@@H]1CCCCN1C2=O [Compound 24, (S)-3-((6-((S)-1-(Chloromethyl)-5-hydroxy-1,2-dihydro-3H-benzo[e]indol-3-yl)-6-oxohexyl)oxy)-2-methoxy-7,8,9,10-tetrahydrobenzo-[e]pyrido[1,2-a][1,4]diazepin-12(6aH)-one] | – | – | – | – | IC50 (PC3 (prostate) cell line; MTT assay, 72 hour incubation): 0.12 nM; IC50 ([1]; MTT assay, 72 hour incubation): 1.83 nM |
| COc1cc2c(cc1OCCCC(=O)N1C[C@@H](CCl)c3c1cc(O)c1ccccc31)NC(=O)[C@@H]1CCCCN1C2=O [Compound 149, (S)-3-(4-((S)-1-(Chloromethyl)-5-hydroxy-1,2-dihydro-3H-benzo[e]indol-3-yl)-4-oxobutoxy)-2-methoxy-7,8,9,10-tetrahydrobenzo[e]-pyrido[1,2-a][1,4]diazepine-6,12(5H,6aH)-dione] | limited increase | – | – | – | – |
| CC(C)(C)OC(=O)N1C[C@@H](CCl)c2c1cc(O)c1ccccc21 [Compound 10, tert-Butyl (S)-1-(chloromethyl)-5-hydroxy-1,2-dihydro-3H-benzo[e]indole-3-carboxylate] | – | 1270 nM | 2920 nM | 2000 nM | – |
| COc1cc2c(cc1OCCCC(=O)N1C[C@@H](CCl)c3c1cc(OC(=O)N1CCN(C)CC1)c1ccccc31)NC(=O)[C@@H]1CCCCN1C2=O [Compound 150, (S)-1-(Chloromethyl)-3-(4-(((S)-2-methoxy-6,12-dioxo-5,6,6a,7,8,9,10,12-octahydrobenzo[e]pyrido[1,2-a][1,4]diazepin-3-yl)oxy)butanoyl)-2,3-dihydro-1H-benzo[e]indol-5-yl 4-methylpiperazine-1-carboxylate] | negligible DNA stabilisation; also recorded: do not increase | – | – | – | – |
| COc1cc2c(cc1OCCCC(=O)N1C[C@@H](C)c3c1cc(O)c1ccccc31)N=C[C@@H]1CCCCN1C2=O [Compound 152, (S)-3-(4-((S)—S-Hydroxy-1-methyl-1,2-dihydro-3H-benzo[e]indol-3-yl)-4-oxobutoxy)-2-methoxy-7,8,9,10-tetrahydrobenzo[e]pyrido[1,2-a][1,4]diazepin-12(6aH)-one] | limited increase | – | – | – | ΔTm compared to the active G-A cross-linker 42 ([3]; three sequences of FIG. 17): large decrease in the ΔTm value |
| COc1cc2c(cc1OCc1cccc(CC(=O)N3C[C@@H](C)c4c3cc(O)c3ccccc43)c1)N=C[C@@H]1CCCCN1C2=O [Compound 145, (S)-3-((3-(2-((S)-5-Hydroxy-1-methyl-1,2-dihydro-3H-benzo[e]indol-3-yl)-2-oxoethyl)benzyl)oxy)-2-methoxy-7,8,9,10-tetrahydrobenzo[e]pyrido[1,2-a][1,4]diazepin-12(6aH)-one] | – | 137 nM | 32.1 nM | 350 nM | – |
